Here are results for 5 molecules from patent US20240067693A1, “POLYPEPTIDES AND USES THEREOF” (MEDIMMUNE LIMITED, priority 2020, published 2024).

Numbered stars: 1 amine (or outer) side, 2 acyl side, 3 side chain; on linkers, the order of the positions; unused ones are H or OH. Bridge positions count the residues as written; N and C are the ends. Square brackets hold non-standard residues; d marks the D form. Side chains are listed from the residue outwards. Peptide text beside a SMILES is read from it. * marks the point of attachment. C18 diacid = O=C(O)CCCCCCCCCCCCCCCCC(=O)*; γGlu = O=C(O)[C@H](CCC(=O)[*:2])N[*:1]; Aib = CC(C)(N)C(=O)O

The target of assay [1] is T1, human amylin receptor (calcitonin receptor co-expressed with receptor activity modifying protein, RAMP3) (hAMYR3) (Homo sapiens, UniProt O60896+P30988).
T1 construct: expressed in transfected cells
T1 sequence (P30988 25-474): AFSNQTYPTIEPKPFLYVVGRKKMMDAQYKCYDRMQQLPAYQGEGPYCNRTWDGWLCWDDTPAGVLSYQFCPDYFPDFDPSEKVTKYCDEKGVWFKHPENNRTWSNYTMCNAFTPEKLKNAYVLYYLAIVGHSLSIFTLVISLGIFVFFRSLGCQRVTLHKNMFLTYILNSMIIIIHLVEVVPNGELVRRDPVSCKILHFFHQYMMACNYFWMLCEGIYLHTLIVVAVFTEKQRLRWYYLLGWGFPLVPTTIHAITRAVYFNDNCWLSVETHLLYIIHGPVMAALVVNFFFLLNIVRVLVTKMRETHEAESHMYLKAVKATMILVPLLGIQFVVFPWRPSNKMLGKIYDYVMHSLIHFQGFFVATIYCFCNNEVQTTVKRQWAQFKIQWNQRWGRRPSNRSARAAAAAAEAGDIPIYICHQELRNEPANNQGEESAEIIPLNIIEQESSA
T1 sequence (O60896 24-148 partner): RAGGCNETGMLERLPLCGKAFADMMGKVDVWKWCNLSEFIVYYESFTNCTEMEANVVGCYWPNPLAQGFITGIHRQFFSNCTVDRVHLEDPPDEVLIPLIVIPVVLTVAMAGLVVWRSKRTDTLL
The assay is described as follows: cAMP production in 1321N1 cells with stable recombinant expression of human amylin receptor (hAMYR3). The class given is cell-based. The following applies: for Ratio (selectivity hAMYR vs hCTR, ratio of EC50 values at the two receptors): EC50 hCTR / EC50 hAMYR3; for EC50: cAMP, 1321N1 cells, assay buffer with 0.1% BSA, read-out: EC50 (pM) hAMYR3. A digest of the protocol: (§1)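 Receptor-expressing cells (human receptors in 1321N1, rat receptors in HEK) incubated 30 min at room temperature with peptide in HBSS/HEPES pH 7.4, 0.1% BSA, 0.5 mM IBMX. cAMP read by HTRF; EC50 from 4-parameter fit as % of maximal amylin or calcitonin response.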
In general terms: cAMP levels reflect the balance of adenylyl cyclase and phosphodiesterase activity.

Assay [2] deals with T2, human calcitonin receptor (hCTR) (Homo sapiens, UniProt P30988).
T2 construct: expressed in transfected cells
T2 sequence (P30988 25-474): T1 sequence (P30988 25-474)
In words: cAMP production in 1321N1 cells with stable recombinant expression of human calcitonin receptor (hCTR). As to conditions: cAMP, 1321N1 cells, assay buffer with 0.1% BSA; read-out: EC50 (pM) hCTR. Format: cell-based. Put shortly:
as §1

Take `CC[C@H](C)[C@H](NC(=O)[C@@H]1CCCN1C(=O)CNC(=O)[C@H](Cc1ccccc1)NC(=O)[C@H](CC(N)=O)NC(=O)C(C)(C)NC(=O)[C@H](CO)NC(=O)[C@H](CO)NC(=O)[C@H](Cc1c[nH]cn1)NC(=O)[C@H](CCCNC(=N)N)NC(=O)[C@H](CC(C)C)NC(=O)[C@H](Cc1ccccc1)NC(=O)[C@H](CC(N)=O)NC(=O)[C@H](C)NC(=O)[C@H](CC(C)C)NC(=O)[C@H](CCCNC(=N)N)NC(=O)[C@H](CCC(N)=O)NC(=O)[C@@H](NC(=O)[C@H](C)NC(=O)[C@@H]1CSSC[C@H](NC(=O)[C@@H](N)CCCCNC(=O)CC[C@H](NC(=O)CC[C@H](NC(=O)CCCCCCCCCCCCCCCCC(=O)O)C(=O)O)C(=O)O)C(=O)N[C@@H](CC(N)=O)C(=O)N[C@@H]([C@@H](C)O)C(=O)N[C@@H](C)C(=O)N[C@@H]([C@@H](C)O)C(=O)N1)[C@@H](C)O)C(=O)N[C@@H](CC(C)C)C(=O)N1CCC[C@H]1C(=O)N1CCC[C@H]1C(=O)N[C@H](C(=O)N[C@@H](CC(N)=O)C(=O)N[C@H](C(=O)NCC(=O)N[C@@H](CO)C(=O)NC(C)(C)C(=O)N[C@H](C(=O)N[C@@H](Cc1ccc(O)cc1)C(N)=O)[C@@H](C)O)C(C)C)[C@@H](C)O` [Peptide 92, K(γE-γE-C18diacid)[CNTATC]ATQRLANFLRHSS(Aib)NFGPILPPTNVGS(Aib)TY-amide] (H-K([γGlu-γGlu-C18 diacid])CNTATCATQRLANFLRHSS[Aib]NFGPILPPTNVGS[Aib]TY-NH2; disulfide 2-7; N-terminus assumed): in assay [1], the “Ratio (selectivity hAMYR vs hCTR, ratio of EC50 values at the two receptors)” value worked out at 130. Moreover, the concentration giving a half-maximal response (EC50) in assay [1] was 341 pM; in assay [2] it was 44400 pM.

As for `CC(C)C[C@H](NC(=O)[C@H](CCCNC(=N)N)NC(=O)[C@H](CCC(N)=O)NC(=O)[C@@H](NC(=O)[C@H](C)NC(=O)[C@@H]1CSSC[C@H](NC(=O)[C@H](CCCCN)NC(=O)[C@@H](N)CCCCNC(=O)CC[C@H](NC(=O)CCCCCCCCCCCCCCCCC(=O)O)C(=O)O)C(=O)N[C@@H](CC(N)=O)C(=O)N[C@@H]([C@@H](C)O)C(=O)N[C@@H](C)C(=O)N[C@@H]([C@@H](C)O)C(=O)N1)[C@@H](C)O)C(=O)N[C@@H](C)C(=O)N[C@@H](CC(N)=O)C(=O)N[C@@H](Cc1ccccc1)C(=O)N[C@@H](CC(C)C)C(=O)NC(C)(C)C(=O)N[C@@H](Cc1c[nH]cn1)C(=O)N[C@@H](CO)C(=O)N[C@@H](CO)C(=O)N[C@@H](CC(N)=O)C(=O)N[C@@H](CC(N)=O)C(=O)N[C@@H](Cc1ccccc1)C(=O)NCC(=O)N1CCC[C@H]1C(=O)NC(C)(C)C(=O)N[C@@H](CC(C)C)C(=O)N1CCC[C@H]1C(=O)N1CCC[C@H]1C(=O)N[C@H](C(=O)N[C@@H](CC(N)=O)C(=O)N[C@H](C(=O)NCC(=O)N[C@@H](CO)C(=O)N[C@@H](CC(N)=O)C(=O)N[C@H](C(=O)N[C@@H](Cc1ccc(O)cc1)C(N)=O)[C@@H](C)O)C(C)C)[C@@H](C)O` [Peptide 94, K(γE-C18diacid)K[CNTATC]ATQRLANFL(Aib)HSSNNFGP(Aib)LPPTNVGSNTY-amide] (H-K([γGlu-C18 diacid])KCNTATCATQRLANFL[Aib]HSSNNFGP[Aib]LPPTNVGSNTY-NH2; disulfide 3-8; N-terminus assumed), in assay [1], the “Ratio (selectivity hAMYR vs hCTR, ratio of EC50 values at the two receptors)” value is 6 and the 50% effective concentration (EC50) is 322 pM. The EC50 in assay [2] came out at 1900 pM.

For `CC[C@H](C)[C@H](NC(=O)[C@@H]1CCCN1C(=O)CNC(=O)[C@H](Cc1ccccc1)NC(=O)[C@H](CC(N)=O)NC(=O)[C@H](CC(N)=O)NC(=O)[C@H](CO)NC(=O)[C@H](CO)NC(=O)[C@H](Cc1c[nH]cn1)NC(=O)C(C)(C)NC(=O)[C@H](CC(C)C)NC(=O)[C@H](Cc1ccccc1)NC(=O)[C@H](CC(N)=O)NC(=O)[C@H](C)NC(=O)[C@H](CC(C)C)NC(=O)[C@H](CCCNC(=N)N)NC(=O)[C@H](CCC(N)=O)NC(=O)[C@@H](NC(=O)[C@H](C)NC(=O)[C@@H]1CSSC[C@H](NC(=O)[C@H](CCCCN)NC(=O)[C@@H](N)CCCCNC(=O)CC[C@H](NC(=O)CCCCCCCCCCCCCCCCC(=O)O)C(=O)O)C(=O)N[C@@H](CC(N)=O)C(=O)N[C@@H]([C@@H](C)O)C(=O)N[C@@H](C)C(=O)N[C@@H]([C@@H](C)O)C(=O)N1)[C@@H](C)O)C(=O)NC(C)(C)C(=O)N1CCC[C@H]1C(=O)N1CCC[C@H]1C(=O)N[C@H](C(=O)N[C@@H](CC(N)=O)C(=O)N[C@H](C(=O)NCC(=O)N[C@@H](CO)C(=O)N[C@@H](CC(N)=O)C(=O)N[C@H](C(=O)N[C@@H](Cc1ccc(O)cc1)C(N)=O)[C@@H](C)O)C(C)C)[C@@H](C)O` [Peptide 95, K(γE-C18diacid)K[CNTATC]ATQRLANFL(Aib)HSSNNFGPI(Aib)PPTNVGSNTY-amide] (H-K([γGlu-C18 diacid])KCNTATCATQRLANFL[Aib]HSSNNFGPI[Aib]PPTNVGSNTY-NH2; disulfide 3-8), in assay [1], the “Ratio (selectivity hAMYR vs hCTR, ratio of EC50 values at the two receptors)” value is recorded as 2. Further, the values for the EC50 in assay [1] and in assay [2] were 691 pM and 1170 pM, respectively.

Consider `CC[C@H](C)[C@H](NC(=O)[C@@H]1CCCN1C(=O)CNC(=O)[C@H](Cc1ccccc1)NC(=O)[C@H](CC(N)=O)NC(=O)[C@H](CC(N)=O)NC(=O)[C@H](CO)NC(=O)[C@H](CO)NC(=O)[C@H](Cc1c[nH]cn1)NC(=O)C(C)(C)NC(=O)[C@H](CC(C)C)NC(=O)[C@H](Cc1ccccc1)NC(=O)[C@H](CC(N)=O)NC(=O)[C@H](C)NC(=O)[C@H](CC(C)C)NC(=O)[C@H](CCCNC(=N)N)NC(=O)[C@H](CCC(N)=O)NC(=O)[C@@H](NC(=O)[C@H](C)NC(=O)[C@@H]1CSSC[C@H](NC(=O)[C@H](CCCCN)NC(=O)[C@@H](N)CCCCNC(=O)CC[C@H](NC(=O)CCCCCCCCCCCCCCCCC(=O)O)C(=O)O)C(=O)N[C@@H](CC(N)=O)C(=O)N[C@@H]([C@@H](C)O)C(=O)N[C@@H](C)C(=O)N[C@@H]([C@@H](C)O)C(=O)N1)[C@@H](C)O)C(=O)N[C@@H](CC(C)C)C(=O)NC(C)(C)C(=O)N1CCC[C@H]1C(=O)N[C@H](C(=O)N[C@@H](CC(N)=O)C(=O)N[C@H](C(=O)NCC(=O)N[C@@H](CO)C(=O)N[C@@H](CC(N)=O)C(=O)N[C@H](C(=O)N[C@@H](Cc1ccc(O)cc1)C(N)=O)[C@@H](C)O)C(C)C)[C@@H](C)O` [Peptide 96, K(γE-C18diacid)K[CNTATC]ATQRLANFL(Aib)HSSNNFGPIL(Aib)PTNVGSNTY-amide] (H-K([γGlu-C18 diacid])KCNTATCATQRLANFL[Aib]HSSNNFGPIL[Aib]PTNVGSNTY-NH2; disulfide 3-8; N-terminus assumed), for which, in assay [1], the “Ratio (selectivity hAMYR vs hCTR, ratio of EC50 values at the two receptors)” value is listed as 2 and the EC50 came to 556 pM. Besides, the concentration giving a half-maximal response (EC50) in assay [2] amounted to 859 pM.

As for `CC[C@H](C)[C@H](NC(=O)[C@@H]1CCCN1C(=O)CNC(=O)[C@H](Cc1ccccc1)NC(=O)[C@H](CC(N)=O)NC(=O)[C@H](CC(N)=O)NC(=O)[C@H](CO)NC(=O)[C@H](CO)NC(=O)[C@H](Cc1c[nH]cn1)NC(=O)C(C)(C)NC(=O)[C@H](CC(C)C)NC(=O)[C@H](Cc1ccccc1)NC(=O)[C@H](CC(N)=O)NC(=O)[C@H](C)NC(=O)[C@H](CC(C)C)NC(=O)[C@H](CCCNC(=N)N)NC(=O)[C@H](CCC(N)=O)NC(=O)[C@@H](NC(=O)[C@H](C)NC(=O)[C@@H]1CSSC[C@H](NC(=O)[C@H](CCCCN)NC(=O)[C@@H](N)CCCCNC(=O)CC[C@H](NC(=O)CCCCCCCCCCCCCCCCC(=O)O)C(=O)O)C(=O)N[C@@H](CC(N)=O)C(=O)N[C@@H]([C@@H](C)O)C(=O)N[C@@H](C)C(=O)N[C@@H]([C@@H](C)O)C(=O)N1)[C@@H](C)O)C(=O)N[C@@H](CC(C)C)C(=O)N1CCC[C@H]1C(=O)NC(C)(C)C(=O)N[C@H](C(=O)N[C@@H](CC(N)=O)C(=O)N[C@H](C(=O)NCC(=O)N[C@@H](CO)C(=O)N[C@@H](CC(N)=O)C(=O)N[C@H](C(=O)N[C@@H](Cc1ccc(O)cc1)C(N)=O)[C@@H](C)O)C(C)C)[C@@H](C)O` [Peptide 97, K(γE-C18diacid)K[CNTATC]ATQRLANFL(Aib)HSSNNFGPILP(Aib)TNVGSNTY-amide] (H-K([γGlu-C18 diacid])KCNTATCATQRLANFL[Aib]HSSNNFGPILP[Aib]TNVGSNTY-NH2; disulfide 3-8; N-terminus assumed), in assay [1], the “Ratio (selectivity hAMYR vs hCTR, ratio of EC50 values at the two receptors)” value was determined as 1 and the half-maximal effective concentration (EC50) worked out at 684 pM. Further, the EC50 in assay [2] came out at 944 pM.

One may read the EC50 as the concentration that produces a half-maximal response.
